Source: ChEMBL document CHEMBL2396555, “Synthesis and acrosin inhibitory activities of 5-phenyl-1H-pyrazole-3-carboxylic acid amide derivatives” (Bioorg Med Chem Lett, 2013)

biological target: Acrosin (Homo sapiens, UniProt P10323); test: Inhibition of human sperm acrosin using BAPNA as substrate after 3 hrs by spectrophotometric analysis
Sequence (P10323 20-42 limits assumed): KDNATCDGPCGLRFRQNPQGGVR
Sequence (P10323 43-343 limits assumed): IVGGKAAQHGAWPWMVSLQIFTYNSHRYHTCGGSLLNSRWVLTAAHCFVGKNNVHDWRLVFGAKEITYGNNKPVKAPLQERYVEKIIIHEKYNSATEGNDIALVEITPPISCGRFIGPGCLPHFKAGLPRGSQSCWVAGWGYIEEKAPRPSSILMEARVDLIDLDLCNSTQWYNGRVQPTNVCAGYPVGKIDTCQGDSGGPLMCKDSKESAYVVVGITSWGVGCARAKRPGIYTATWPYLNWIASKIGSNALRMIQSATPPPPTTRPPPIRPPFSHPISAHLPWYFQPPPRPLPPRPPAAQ

Row | IC50 | SMILES
1 | 0.76 µmol/mL | O=C(NC(CO)(CO)CO)c1cc(-c2cccc([N+](=O)[O-])c2)[nH]n1
2 | 9.1 µmol/mL | O=C(NCCOCCO)c1cc(-c2cccc([N+](=O)[O-])c2)[nH]n1
3 | 0.53 µmol/mL | O=C(NCCO)c1cc(-c2ccc(Br)cc2)[nH]n1
4 | 0.09 µmol/mL | COc1ccc(-c2cc(C(=O)NCCO)n[nH]2)cc1
5 | 0.06 µmol/mL | CC(O)CNC(=O)c1cc(-c2ccccc2)[nH]n1 (stereo not drawn)
6 | 2.95 µmol/mL | CC(O)CNC(=O)c1cc(-c2ccc([N+](=O)[O-])cc2)[nH]n1 (stereo not drawn)
7 | 0.79 µmol/mL | CN(CCO)C(=O)c1cc(-c2cccc([N+](=O)[O-])c2)[nH]n1
8 | 0.78 µmol/mL | O=C(NCCCO)c1cc(-c2cccc([N+](=O)[O-])c2)[nH]n1
9 | 1.7 µmol/mL | O=C(c1cc(-c2ccccc2)[nH]n1)N(CCO)CCO
10 | 2.8 µmol/mL | O=C(NCCO)c1cc(-c2ccccc2)[nH]n1
11 | 0.54 µmol/mL | O=C(NCCCO)c1cc(-c2ccccc2)[nH]n1
12 | 6.02 µmol/mL | COc1ccc(-c2cc(C(=O)NCCOCCO)n[nH]2)cc1
13 | 0.33 µmol/mL | CC(O)CNC(=O)c1cc(-c2ccc(Br)cc2)[nH]n1 (stereo not drawn)
14 | 0.38 µmol/mL | O=C(NCCCO)c1cc(-c2ccc(Br)cc2)[nH]n1
15 | 5.6 µmol/mL | O=C(c1cc(-c2ccc([N+](=O)[O-])cc2)[nH]n1)N(CCO)CCO
16 | 10 µmol/mL | O=C(NCCOCCO)c1cc(-c2ccc(Br)cc2)[nH]n1
17 | 1.83 µmol/mL | CC(O)CNC(=O)c1cc(-c2cccc([N+](=O)[O-])c2)[nH]n1 (stereo not drawn)

Row | IC50 | SMILES
18 | 3.07 µmol/mL | O=C(NCCCO)c1cc(-c2ccc([N+](=O)[O-])cc2)[nH]n1
19 | 0.41 µmol/mL | COc1ccc(-c2cc(C(=O)N(C)CCO)n[nH]2)cc1
20 | 2.4 µmol/mL | O=C(c1cc(-c2cccc([N+](=O)[O-])c2)[nH]n1)N(CCO)CCO
21 | 2.07 µmol/mL | O=C(NCCOCCO)c1cc(-c2ccc([N+](=O)[O-])cc2)[nH]n1
22 | 0.94 µmol/mL | O=C(NC(CO)(CO)CO)c1cc(-c2ccccc2)[nH]n1
23 | 2.7 µmol/mL | O=C(NCCO)c1cc(-c2ccc([N+](=O)[O-])cc2)[nH]n1
24 | 0.76 µmol/mL | O=C(NCCO)c1cc(-c2cccc([N+](=O)[O-])c2)[nH]n1
25 | 0.39 µmol/mL | O=Cc1cc(-c2ccc(Cl)cc2Cl)on1
26 | 1.21 µmol/mL | CC(O)CN(CC(C)O)C(=O)c1cc(-c2ccc([N+](=O)[O-])cc2)[nH]n1 (stereo not drawn)
27 | 5.22 µmol/mL | O=C(NC(CO)(CO)CO)c1cc(-c2ccc([N+](=O)[O-])cc2)[nH]n1
28 | 0.01 µmol/mL | CC(O)CN(CC(C)O)C(=O)c1cc(-c2ccccc2)[nH]n1 (stereo not drawn)
29 | 1.875 µmol/mL | CC(C)(CO)NC(=O)c1cc(-c2ccc([N+](=O)[O-])cc2)[nH]n1
30 | 3 µmol/mL | CC(CO)NC(=O)c1cc(-c2ccccc2)[nH]n1 (stereo not drawn)
31 | 2 µmol/mL | CN(CCO)C(=O)c1cc(-c2ccc([N+](=O)[O-])cc2)[nH]n1
32 | 0.88 µmol/mL | CC(CO)NC(=O)c1cc(-c2ccc(Br)cc2)[nH]n1 (stereo not drawn)
33 | 1.52 µmol/mL | O=C(c1cc(-c2ccc(Br)cc2)[nH]n1)N(CCO)CCO
